Patent US11319311B2, “Crystalline forms of Actinomycin D for treatment of cancer” (TRANSGENEX NANOBIOTECH, INC., priority 2018, dated 2022)
pIC50: −log10 of the molar value. Where two headings read alike, the source gives them in different places.

Key:
Assay type in all cases: cell-based
[1] = test system: human sarcoma cell line SK-ES-1; assay: Tumor sphere formation assay
Source text: Cancer stem cells (CSCs) are defined as a small subset of cells within a tumor with the ability to self-renew and often drive tumor progression and recurrence after chemotherapy treatment (Xiaochen Zhou, et al. 2015. A Reliable Parameter to Standardize the Scoring of Stem Cell Spheres. PLOS One 10(5); e0127348). It is important to study the responses of cancer stem cells or the tumors treated with the new molecular complexes. We have assessed cancer stem cells (CSCs) growth using tumor sphere formation assay, which involves culturing cancer cells in low attachment plates in serum free media. Sphere size and diameter was measured using Image) software and statistical analysis was performed using Graph Pad Prism Software.
The stem cell culture medium is prepared for 500 ml (250 ml of Dulbecco's Modified Eagle Medium (DMEM) (ATCC® 30-2002) plus 250 ml of F-12K medium (ATCC® 30-2004)) using 20 ng/ml epidermal growth factor, 10 ng/ml basic fibroblast growth factor, 5 μg/ml insulin and 0.4% Bovine Serum Albumin. All preparation methods known to the person skilled in the art.
The cancer cell line used in this study was human sarcoma cell line SK-ES-1. The cells were seeded in a density of 200 per well per 200 μl in a 96-well Ultra-Low Attachment plate (Corning, Cat #3474, USA), this plate is specially treated for stem cell growth or tumor culture. On the day 1 of seeding, 100 μl of cell solution was added into the plate. […]
On the day 6 of seeding, 10 μl of NucBlue Live Cell Stain ReadyProbes (Invitrogen Cat #R37605, USA) were added into each well for staining to visualize the live cells under the blue fluorescent light. […] Then the plate was brought to the Keyence imaging device (Keyence America, All-in-One Fluorescence Microscope BZ-X800, USA) for image scanning. […]
The sum of sphere image area of every individual sphere, with diameter over 50 μm, in each well was calculated. […] The sphere image area was calculated based on the sum area of spheres with diameter over 50 μm in each treatment well, and significance was declared at P<0.05 for the bars indicated by *, and P<0.001 by **. […]

PANC-1 = assay: Monolayer cell culture IC50 (CellTiter-Glo viability), PANC-1; conditions: Pancreatic, PANC-1, monolayer, 72 hours treatment, average of three replications
Experimental: (§1) Cancer cell lines listed in Table 1 were subjected for testing anti-cancer potency or the half maximal inhibitory concentration (IC50) of the D-Actinomycin (DACT) molecular complexes.
(§2) The SK-ES-1, U-2 OS, and SAOS-2 cells were cultured in a growth medium that is ATCC-formulated McCoy's 5a Medium Modified, Catalog No. 30-2007. The PC-3, PANC-1, SK-Mel-5, A549, H460, and H1299 were cultured in a growth medium that is ATCC-formulated Dulbecco's Modified Eagle's Medium (DMEM), Catalog No. 30-2002. The cells were seeded on 96-well microtiter plates with 3500 cells per well and cultured in an incubator (Model 3120, Thermo Scientific, USA) with a constant temperature at 37° C. and 5% carbon dioxide (CO2) gas for 24 hours.
(§3) The new DACT-molecular complexes were made into a series with concentration of 200 nM to 40 nM, 8 nM, 1.6 nM, 0.32 nM, and 0.064 nM. 100 μl of each solution was then added into each well to bring out the final concentration of the drug treatment at 100 nM, 20 nM, 4 nM, 0.8 nM, 0.16 nM, or 0.032 nM, respectively.
(§4) The treated cells in the 96 well plate was then further cultured at the same conditions for 72 hours and then subjected for a final cell viability measurement. The measurement used a homogeneous method to determine the number of metabolically active cells presented in each of treatments. A testing reagent for the measurement is a mixture solution of the CellTiter-Glo® 2.0 reagent (CTG, Promega Cat #G9243, USA) and growth medium in 1:1 ratio in this respect.
(§5) The 96-well plate with the new molecular complex treated cells was taken out from incubator after the 72 hours of incubation, and the treatment solution in each well was removed using a multichannel pipette, and 100 μl of the testing reagent were added into each well. The plate was then placed on a plate shaker for 15 min. The plate was covered with a piece of aluminum foil to protect the CTG luminescence during the shaking time.
(§6) Then 90 μl of the 100 μl testing reagent were transferred into an opaque-walled 96-well plate for the CTG luminescence reading on a plate reader (SynergyH4 Hybrid Reader, Biotek, USA). The luminescence intensity of each treatment was positively correlated with the number of cells survived during the treatments.
(§7) All the treatment data was normalized by comparing with the control samples that had only growth medium without any molecular complexes. The half maximal inhibitory concentration (IC50) data was calculated using the nonlinear regression model and dose-responses (inhibition) curve built in the software. Each of treatments was performed in three replications each time and repeated three times for validation. The IC50 average […] (Avg) and standard deviation (STDV) were calculated based on the three replications.

PC-3 = assay: Monolayer cell culture IC50 (CellTiter-Glo viability), PC-3; conditions: Prostate, PC-3, monolayer, 72 hours treatment, average of three replications
Experimental: as §1, §2, §3, §4, §5, §6, §7

H1299 = assay: Monolayer cell culture IC50 (CellTiter-Glo viability), H1299; conditions: Lung, 72 hours treatment, average of three replications
Experimental: as §1, §2, §3, §4, §5, §6, §7

H460 = assay: Monolayer cell culture IC50 (CellTiter-Glo viability), H460; conditions: Lung, 72 hours treatment, average of three replications
Experimental: as §1, §2, §3, §4, §5, §6, §7

[2] = Test I, read-out: IC50 Test (I) Avg
[3] = Test II, read-out: IC50 Test (II) Avg
[4] = Test III, read-out: IC50 Test (III) Avg

SMILES: CCCOC(=O)c1ccc(O)cc1.Cc1c2oc3c(C)ccc(C(=O)NC4C(=O)NC(C(C)C)C(=O)N5CCCC5C(=O)N(C)CC(=O)N(C)C(C(C)C)C(=O)OC4C)c3nc-2c(C(=O)NC2C(=O)NC(C(C)C)C(=O)N3CCCC3C(=O)N(C)CC(=O)N(C)C(C(C)C)C(=O)OC2C)c(N)c1=O (stereo not drawn) [DACT-propylparaben]
- sphere area ([1]; SK-ES-1 spheres with diameter over 50 μm, day 6 of seeding, compared with pure parent molecule DACT): noticeable reduction in sphere area
- tumor spheres size (SSS) ([1]; compared with that of the parent molecule): reduced tumor spheres size (SSS)
- tumor sphere formation efficiency (SFE) ([1]; compared with the parent molecule): reduced tumor sphere formation efficiency (SFE)
- pIC50 (PANC-1; [2]): 8.34
- pIC50 (PANC-1; [3]): 8.77
- pIC50 (PANC-1; [4]): 8.48
- pIC50 (PC-3; [2]): 8.11
- pIC50 (PC-3; [3]): 8.34
- pIC50 (PC-3; [4]): 8.20
- pIC50 (H1299; [2]): 8.83
- pIC50 (H1299; [3]): 9.02
- pIC50 (H1299; [4]): 8.98
- pIC50 (H460; [2]): 9.68
- pIC50 (H460; [3]): 9.52
- pIC50 (H460; [4]): 9.82
